Experimental data: patent US20100099756A1, “USES OF INCENSOLE, INCENSOLE ACETATE AND DERIVATIVES THEREOF” (YISSUM RESEARCH DEVELOPMENT COMPANY OF THE HEBREW …, priority 2006, published 2010)
Values belong to the molecule of their own block, whether it stands above or below them.

Assays:
Format in all cases: cell-based
mouse TRPV3-YFP [1] = experiment: Whole-cell voltage-clamp, TRPV3-YFP expressing HEK293 cells; details: IA 200 μM; 2-APB 100 μM; cells not expressing TRPV3
Method: (§1) Electrophysiological recording. Currents were recorded using whole-cell voltage-clamp. Pipettes were pulled from microcapillary glass (A-M Systems). A coverslip containing cells was transferred to a 300 μL chamber that was constantly perfused (1-2 mL/min) with external solution. Voltage protocols were generated and data were digitized and recorded using Pulse (HEKA Elektronik) software in conjunction with an Axopatch 200A amplifier (Axon Instruments), and the data analyzed using an in-house Visual Basic (Microsoft) analysis program.
(§2) The external solution contained (in mM): 120 NaCl, 5 KCl, 1 MgCl2, 2 CaCl2, 10 Glucose and 20 HEPES, pH 7.4 with NaOH. The measured charge (pC) was defined as the charge elicited between -85 and -45 mV by a ramping voltage stimulus (−85 mV to +35 mV, 0.54 mV/msec; holding potential -55 mV). Currents were sampled at 5 kHz. Experimental and control cells were alternated whenever possible. Control values were obtained from adjacent cells with no detectable YFP fluorescence, presumed to be non-TRPV3-expressing.

mouse TRPV3-YFP [2] = biological target: T1, mouse TRPV3-YFP (Mus musculus, UniProt Q8K424); experiment: as above; details: IA 200 μM; 2-APB 100 μM; charge −85 to −45 mV
T1 construct: expressed in transfected cells
T1 sequence (Q8K424 1-791): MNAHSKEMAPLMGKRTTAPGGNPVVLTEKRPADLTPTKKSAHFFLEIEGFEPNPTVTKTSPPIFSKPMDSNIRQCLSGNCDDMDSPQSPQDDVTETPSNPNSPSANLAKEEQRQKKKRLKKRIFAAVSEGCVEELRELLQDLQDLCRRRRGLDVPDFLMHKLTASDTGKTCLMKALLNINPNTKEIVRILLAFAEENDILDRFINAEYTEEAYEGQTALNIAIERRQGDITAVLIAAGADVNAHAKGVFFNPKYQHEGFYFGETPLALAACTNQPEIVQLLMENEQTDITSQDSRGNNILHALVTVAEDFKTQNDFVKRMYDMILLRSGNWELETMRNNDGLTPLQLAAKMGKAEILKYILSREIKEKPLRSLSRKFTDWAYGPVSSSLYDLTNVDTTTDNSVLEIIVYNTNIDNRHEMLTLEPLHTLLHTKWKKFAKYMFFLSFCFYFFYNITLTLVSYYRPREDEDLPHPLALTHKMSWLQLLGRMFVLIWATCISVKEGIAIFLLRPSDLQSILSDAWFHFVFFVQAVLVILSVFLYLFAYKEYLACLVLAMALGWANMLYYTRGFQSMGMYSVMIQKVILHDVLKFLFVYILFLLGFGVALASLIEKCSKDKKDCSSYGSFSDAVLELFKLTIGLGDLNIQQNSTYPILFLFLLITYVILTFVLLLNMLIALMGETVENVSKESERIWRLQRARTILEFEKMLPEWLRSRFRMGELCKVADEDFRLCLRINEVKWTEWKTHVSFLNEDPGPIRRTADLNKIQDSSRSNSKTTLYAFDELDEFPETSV
Method: as §1, §2

mouse TRPV3-YFP [3] = biological target: T1, mouse TRPV3-YFP; experiment: Calcium imaging of HEK293 cells expressing mouse TRPV3-YFP; details: IA 100 μM; 2-APB positive control
Method: (§3) All error bars indicate SEM; p values in all subfigures but c represent analysis with one-way ANOVA Bonferroni's post hoc.
TRPV3-YFP [O'dell, D. K., Rimmerman, N., Pickens, S. R. & Walker J. M. Fatty acyl amides of endogenous tetrahydroisoquinolines are active at the recombinant human TRPV1 receptor. […] Med. Chem. 15, 6164-6169 (2007)], TRPV4 and mock-transfected cell lines were cultured in DMEM 1× with L-glutamine (Mediatech, Inc. Herndon, Va.), containing 1% penicillin-streptomycin (Invitrogen, Carlsbad, Calif.) and 10% foetal bovine serum.
(§4) Calcium imaging of HEK 293 cells. TRPV1, TRPV3, and TRPV4 expressing HEK293 cells were plated 24-48 h before imaging in 96 well plates, loaded with 3 μM Fura-2 AM and imaged as previously described [O'dell, D. K., Rimmerman, N., Pickens, S. R. & Walker J. M. Fatty acyl amides of endogenous tetrahydroisoquinolines are active at the recombinant human TRPV1 receptor. […] Med. Chem. 15, 6164-6169 (2007)].
(§5) For single cell calcium imaging, HEK293-rat TRPV2 and HEK293-mouse TRPV3-YFP expressing cells were plated on collagen-coated glass cover slips. Cells were loaded for 60 min with 3 μM Fura-2 AM.
Data analysis of calcium imaging data. Analysis of calcium imaging data was done using a non-linear regression curve fit (Graphpad 4 Prism, San Diego, Calif.). t tests and one way ANOVA were calculated using SPSS (Chicago, Ill.). In the keratinocyte experiments, drug-induced response for each cell was taken as the maximal post-drug measurements over time minus the average of the last 5 pre-drug measurements. Averaged drug responses over 30 randomly selected cells per coverslip were analyzed with two-tailed unpaired t tests.

rat-TRPV2 = biological target: T2, rat-TRPV2 (Rattus norvegicus, UniProt Q9WUD2); experiment: Calcium imaging of HEK293 cells transiently transfected with rat-TRPV2; details: IA 100 μM
T2 construct: expressed in transfected cells; host or cells: HEK293 (transient, lipofectamine)
Description: as §3
(§6) HEK293 cells were transiently transfected with a rat TRPV2 plasmid using lipofectamine reagent (Invitrogen, Carlsbad, Calif.) according to manufacturer's protocol. They were then maintained in Dulbecco's modified Eagle Medium/10% fetal calf serum supplemented with Penicillin, Streptomycin, and L-glutamine. Primary keratinocytes from TRPV3-deficient and TRPV3+/+ mouse pups (day 1-4) were harvested and cultured as described previously [Chung, M. K., Lee, H., Mizuno, A., Suzuki, M. & Caterina, M. J. TRPV3 and TRPV4 mediate warmth-evoked currents in primary mouse keratinocytes. J. Biol. Chem. 279, 21569-21575 (2004)].
as §5

rat TRPV4 = biological target: T3, rat TRPV4 (Rattus norvegicus, UniProt Q9ERZ8); experiment: Calcium imaging of TRPV4 transfected HEK293 cells; details: IA 100 μM, compared to vehicle
T3 construct: expressed in transfected cells; host or cells: HEK293 cell line
Method: as §3
TRPV3-YFP [O'dell, D. K., Rimmerman, N., Pickens, S. R. & Walker J. M. Fatty acyl amides of endogenous tetrahydroisoquinolines are active at the recombinant human TRPV1 receptor. Bioorg. Med. Chem. 15, 6164-6169 (2007)], TRPV4 and mock-transfected cell lines were cultured in DMEM 1× with L-glutamine (Mediatech, Inc. Herndon, Va.), containing 1% penicillin-streptomycin (Invitrogen, Carlsbad, Calif.) and 10% foetal bovine serum.
Calcium imaging of HEK 293 cells. TRPV1, TRPV3, and TRPV4 expressing HEK293 cells were plated 24-48 h before imaging in 96 well plates, loaded with 3 μM Fura-2 AM and imaged as previously described [O'dell, D. K., Rimmerman, N., Pickens, S. R. & Walker J. M. Fatty acyl amides of endogenous tetrahydroisoquinolines are active at the recombinant human TRPV1 receptor. Bioorg. Med. Chem. 15, 6164-6169 (2007)].

TRPV3 = biological target: T4, TRPV3 (Mus musculus, UniProt Q8K424); experiment: Calcium imaging of TRPV3+/+ and TRPV3−/− primary keratinocytes; design: endogenous in cells; host or cells: primary keratinocytes from TRPV3+/+ mouse pups (day 1-4); TRPV3-/- cells as control; details: IA 500 μM; camphor 10 mM
T4 sequence (Q8K424 1-791): T1 sequence (Q8K424 1-791)
Description: as §6
Calcium imaging of TRPV3^+/+ and TRPV3^−/− keratinocytes. Primary keratinocytes from TRPV3-deficient and WT mouse pups (day 1-4) were harvested and cultured as described [Chung, M. K., Lee, H., Mizuno, A., Suzuki, M. & Caterina, M. J. TRPV3 and TRPV4 mediate warmth-evoked currents in primary mouse keratinocytes. J. Biol. Chem. 279, 21569-21575 (2004)].
Cells were plated on glass coverslips (10^5/cm^2) and incubated for 48-60 h, then loaded with fura-2 AM (20 μM, 0.04% pleuronic acid, 32° C. for 1 h) in imaging buffer containing (in mM): 130 NaCl, 2.5 CaCl2, 0.6 MgCl2, 10 HEPES, 1.2 NaHCO3, 10 glucose, pH 7.45. Ratiometric Ca^2+ imaging was performed as previously described [O'dell, D. K., Rimmerman, N., Pickens, S. R. & Walker J. M. Fatty acyl amides of endogenous tetrahydroisoquinolines are active at the recombinant human TRPV1 receptor. Bioorg. Med. Chem. 15, 6164-6169 (2007)]. Drug was added to the bath following a period of baseline recording. Calcium measurements were made from 30 randomly selected cells per coverslip.
Data analysis of calcium imaging data. Analysis of calcium imaging data was done using a non-linear regression curve fit (Graphpad 4 Prism, San Diego, Calif.). t tests and one way ANOVA were calculated using SPSS (Chicago, Ill.). […] Averaged drug responses over 30 randomly selected cells per coverslip were analyzed with two-tailed unpaired t tests.

TRPV1 = TRPV1 (Homo sapiens, UniProt Q8NER1); experiment: Calcium imaging of TRPV1-transfected HEK293 cells; details: IA 100 μM, compared to vehicle
Method: as §3
Human HEK 293 cells stably expressing TRPV1 were a kind gift from Merck Research Laboratories (Whitehouse Station, N.J.). Cells were cultured in minimal essential medium, Eagle, modified with non-essential amino acids, 1 mM sodium pyruvate, 2 mM L-glutamine and 1.5 g/L sodium bicarbonate (ATCC, Mabassas, Va.), containing 1% Penicillin-streptomycin, and 10% foetal bovine serum. Cells were passaged three times a week using Trypsin-EDTA 1× (Invitrogen, Carlsbad, Calif.) and grown under 5% CO2 at 37° C.
as §4

IκBα degradation = IκBα degradation in TNFα-stimulated HeLa cells (Western blot); details: HeLa cells pre-incubated 2 hrs, then TNFα 20 ng/ml for 20 minutes
Method: HeLa cells were pre-incubated with IA (FIG. 1A) or IN (FIG. 1B) at the indicated concentrations for 2 hrs prior to 20 minutes exposure to TNFα (20 ng/ml). At least three more experiments were repeated with highest indicated dose, resulting similarly.
IκBα Degradation. HeLa cells were pre-incubated with IA (50 μg/ml, dissolved in ethanol) for 2 hrs, and then stimulated for 20 minutes with TNFα (20 ng/ml, Emeryville, Calif., USA). After removing the slides from plates for immonostaining (see below), proteins were extracted from remaining cells in the plates. Proteins were extracted from cells in NP-40 lysis buffer. Total protein concentration was determined using the Bradford method. Lysates were then analyzed either by Western blotting (WB).
Western Blot (WB). Following separation by SDS-PAGE, proteins were blotted to a polyvinylidene difluoride (PVDF) membrane (Millipore). The membrane was blocked in 5% (w/v) milk powder and then incubated in TBST containing the primary antibody and 2% (w/v) milk powder. All phospho-specific antibodies were purchased from Cell signaling Inc. αIκBa, αp65 and αCOX2 antibodies from Santa Cruz Inc. (California, USA). After binding of an appropriate secondary antibody coupled to horseradish peroxidase, proteins were visualized by enhanced chemiluminiscence according to the instructions of the manufacturer (Amersham Lifescience).

T3 sequence (Q9ERZ8 whole entry): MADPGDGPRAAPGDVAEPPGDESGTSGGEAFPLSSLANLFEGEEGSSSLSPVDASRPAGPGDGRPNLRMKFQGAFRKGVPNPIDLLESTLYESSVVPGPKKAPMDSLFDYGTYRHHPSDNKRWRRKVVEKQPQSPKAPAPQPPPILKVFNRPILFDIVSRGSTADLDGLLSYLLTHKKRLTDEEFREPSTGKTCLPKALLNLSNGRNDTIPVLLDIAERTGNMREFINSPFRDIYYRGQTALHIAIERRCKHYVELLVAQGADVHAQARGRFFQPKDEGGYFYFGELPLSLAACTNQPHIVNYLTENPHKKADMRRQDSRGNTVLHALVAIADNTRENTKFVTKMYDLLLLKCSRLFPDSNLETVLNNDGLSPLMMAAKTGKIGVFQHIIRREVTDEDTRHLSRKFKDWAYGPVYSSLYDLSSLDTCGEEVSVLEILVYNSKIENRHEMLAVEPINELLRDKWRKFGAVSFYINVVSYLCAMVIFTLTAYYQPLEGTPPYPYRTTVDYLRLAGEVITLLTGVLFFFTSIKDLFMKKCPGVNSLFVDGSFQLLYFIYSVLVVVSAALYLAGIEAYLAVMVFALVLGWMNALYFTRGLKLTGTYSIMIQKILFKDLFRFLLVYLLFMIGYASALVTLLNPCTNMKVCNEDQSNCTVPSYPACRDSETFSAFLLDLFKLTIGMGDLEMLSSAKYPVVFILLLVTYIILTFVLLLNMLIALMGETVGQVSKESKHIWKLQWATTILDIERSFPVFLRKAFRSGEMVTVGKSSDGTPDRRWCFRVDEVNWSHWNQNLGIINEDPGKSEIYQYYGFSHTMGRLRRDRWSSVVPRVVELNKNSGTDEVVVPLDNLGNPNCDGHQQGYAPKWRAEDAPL
TRPV1, sequence (Q8NER1 whole entry): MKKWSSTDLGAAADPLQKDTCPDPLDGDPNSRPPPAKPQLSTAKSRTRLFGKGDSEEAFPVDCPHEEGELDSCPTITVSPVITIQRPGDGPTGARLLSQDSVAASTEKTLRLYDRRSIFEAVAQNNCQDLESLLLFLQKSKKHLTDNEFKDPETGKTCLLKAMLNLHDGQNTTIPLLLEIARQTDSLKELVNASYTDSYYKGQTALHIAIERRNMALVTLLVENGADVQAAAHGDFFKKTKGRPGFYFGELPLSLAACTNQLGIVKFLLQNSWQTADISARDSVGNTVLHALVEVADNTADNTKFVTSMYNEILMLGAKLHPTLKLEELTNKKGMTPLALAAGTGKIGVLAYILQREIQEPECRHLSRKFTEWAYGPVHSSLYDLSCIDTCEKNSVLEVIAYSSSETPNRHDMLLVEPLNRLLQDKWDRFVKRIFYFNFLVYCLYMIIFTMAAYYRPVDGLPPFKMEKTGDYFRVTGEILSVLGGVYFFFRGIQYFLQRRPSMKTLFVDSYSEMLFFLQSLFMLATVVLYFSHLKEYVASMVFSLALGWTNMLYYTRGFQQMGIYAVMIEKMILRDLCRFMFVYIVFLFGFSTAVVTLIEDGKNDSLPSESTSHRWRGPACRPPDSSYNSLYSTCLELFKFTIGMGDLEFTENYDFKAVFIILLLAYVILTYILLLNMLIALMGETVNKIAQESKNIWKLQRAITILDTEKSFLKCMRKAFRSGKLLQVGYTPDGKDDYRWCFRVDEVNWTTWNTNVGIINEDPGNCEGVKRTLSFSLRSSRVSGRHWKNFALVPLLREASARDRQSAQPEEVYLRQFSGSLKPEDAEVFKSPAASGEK
T2 sequence (Q9WUD2 whole entry): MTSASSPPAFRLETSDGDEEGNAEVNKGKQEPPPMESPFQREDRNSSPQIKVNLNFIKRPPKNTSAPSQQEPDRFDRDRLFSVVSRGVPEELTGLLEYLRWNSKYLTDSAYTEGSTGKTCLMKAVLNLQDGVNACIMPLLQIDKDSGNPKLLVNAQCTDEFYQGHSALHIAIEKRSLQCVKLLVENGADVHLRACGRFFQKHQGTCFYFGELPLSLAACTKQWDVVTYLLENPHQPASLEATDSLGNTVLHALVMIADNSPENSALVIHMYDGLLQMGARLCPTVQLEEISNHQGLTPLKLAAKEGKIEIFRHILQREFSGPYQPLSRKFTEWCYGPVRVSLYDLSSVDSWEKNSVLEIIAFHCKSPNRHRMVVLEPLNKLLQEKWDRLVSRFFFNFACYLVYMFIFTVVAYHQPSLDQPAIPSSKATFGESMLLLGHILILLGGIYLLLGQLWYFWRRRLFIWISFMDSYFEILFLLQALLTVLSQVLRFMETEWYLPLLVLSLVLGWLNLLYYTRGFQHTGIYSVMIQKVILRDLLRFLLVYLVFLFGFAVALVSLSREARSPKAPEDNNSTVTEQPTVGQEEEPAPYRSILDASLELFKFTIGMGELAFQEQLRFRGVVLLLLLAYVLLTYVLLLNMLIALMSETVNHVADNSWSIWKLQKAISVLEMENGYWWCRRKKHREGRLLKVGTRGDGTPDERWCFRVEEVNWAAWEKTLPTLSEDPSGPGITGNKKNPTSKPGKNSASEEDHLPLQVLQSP

SMILES: NCCOB(c1ccccc1)c1ccccc1 [2-APB, 2-aminoethyl diphenylborinate, reference compound]
- current activation in TRPV3(−) control cells (mouse TRPV3-YFP [1]): not in TRPV3(−) cells
- current activation in TRPV3(+) HEK293 cells (mouse TRPV3-YFP [2]): activates currents
- calcium influx vs vehicle (mouse TRPV3-YFP [3]): evoked robust calcium increases
- calcium influx in rat-TRPV2 transfected HEK293 cells (rat-TRPV2): robustly increased calcium

SMILES: CCCCCCCCCC(=O)O[C@@H]1[C@@H](C)[C@@]2(O)[C@@H](C=C(CO)C[C@@]3(O)C(=O)C(C)=C[C@@H]23)[C@@H]2C(C)(C)[C@]12OC(=O)CCCCCCCCC [4αPDD, reference compound]
- calcium influx in TRPV4 transfected HEK293 cells (rat TRPV4): robust calcium increase

SMILES: C/C1=C\CC2(C(C)C)CCC(C)(O2)C(O)CC/C(C)=C/CC1 (centres unmarked) [IN, incensole]
- IκBα degradation (IκBα degradation): inhibited IκBα degradation in a dose dependent manner

The remaining lines, values ahead:

- calcium influx in primary keratinocytes from WT mice (TRPV3): showed a similar effect
SMILES: CC12CCC(CC1=O)C2(C)C (centres unmarked) [Camphor, camphor, reference compound]

- calcium influx in TRPV1-transfected HEK293 cells (TRPV1): robust calcium increase
SMILES: COc1cc(CNC(=O)CCCC/C=C/C(C)C)ccc1O [Capsaicin, reference compound]
